Earlier results, collected in article PMC9916978, “Enantioselective Human Serum Albumin Binding of Apremilast: Liquid Chromatographic, Fluorescence and Molecular Docking Study” (International Journal of Molecular Sciences, 2023).

Tests used:
Design in all cases: method as in earlier work
Settings in all cases: 0.25 to 2.5 μg/mL; cited from earlier work
mouse plasma = system: mouse plasma
rat plasma = system: rat plasma
rabbit plasma = system: rabbit plasma
monkey plasma = system: monkey plasma
human plasma = system: human plasma

CCOc1cc([C@@H](CS(C)(=O)=O)N2C(=O)c3cccc(NC(C)=O)c3C2=O)ccc1OC [APR, apremilast]
overall mean percent bound (mouse plasma): 88.6%
overall mean percent bound (rat plasma): 90.6%
overall mean percent bound (rabbit plasma): 80.9%
overall mean percent bound (monkey plasma): 84.3%
overall mean percent bound (human plasma): 68.3%
